Results reported in publication PMC6757289, “Design and Characterization of SGK3-PROTAC1, an Isoform Specific SGK3 Kinase PROTAC Degrader” (ACS Chemical Biology, 2019).

Biological target: T1, SGK3 (Homo sapiens, UniProt Q96BR1)
T1 sequence (Q96BR1 1-496): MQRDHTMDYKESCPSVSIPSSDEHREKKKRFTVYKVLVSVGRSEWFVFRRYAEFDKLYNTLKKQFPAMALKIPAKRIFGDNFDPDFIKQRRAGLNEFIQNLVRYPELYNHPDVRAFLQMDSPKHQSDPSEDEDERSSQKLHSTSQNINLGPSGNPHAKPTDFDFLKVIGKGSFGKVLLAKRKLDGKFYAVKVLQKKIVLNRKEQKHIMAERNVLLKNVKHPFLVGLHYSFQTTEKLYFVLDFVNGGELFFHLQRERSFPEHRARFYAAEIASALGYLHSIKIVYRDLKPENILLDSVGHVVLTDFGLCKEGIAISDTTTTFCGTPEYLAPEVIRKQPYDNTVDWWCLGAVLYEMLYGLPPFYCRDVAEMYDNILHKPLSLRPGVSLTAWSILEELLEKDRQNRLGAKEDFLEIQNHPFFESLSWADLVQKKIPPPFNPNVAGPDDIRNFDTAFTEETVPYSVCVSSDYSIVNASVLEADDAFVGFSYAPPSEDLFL
Experiment: SGK3 degradation in HEK293 cells, immunoblot
Assay type: cell-based
Design: reduced endogenous SGK isoform or S6K1 expression when administered to HEK293 cells for 48 h; endogenous in cells; host or cells: HEK293; Dmax: dose or concentration left out as unconfirmed
Settings: for remaining activity at 0.001 µM / remaining activity at 0.01 µM / remaining activity at 0.1 µM / remaining activity at 1 µM / remaining activity at 10 µM: Figure 2; for degradation of SGK3: HEK293, 8 h, cisSGK3-PROTAC1 up to 3 μM, SGK3-PROTAC1 0.1 μM
Description: Figure 1 Design and cellular activity of first generation SGK3 PROTACs. (A) Structure of compound 14H, previously published by Sanofi as an inhibitor of SGK3. (B) Starting material for SGK PROTACs. […] (C) Structures of first generation SGK PROTACs. SGK and E3 ligase targeting motifs were joined by a 3xPEG linker to produce the PROTACs. (D) HEK293 cells were treated for 48 h with increasing concentrations of each PROTAC compound from 0.1 nM to 10 μM. Cell lysates were subjected to immunoblot analysis with the indicated antibodies, and SGK3 protein levels were quantified in Image Studio Lite software (Licor).
Figure 2 Design and cellular evaluation of second and third generation SGK PROTACs. (A) Chemical structure of compounds DAT5–12, expanding upon DAT1. (B) Chemical structure of cisSGK3-PROTAC1. (C) HEK293 cells were treated for 48 h with increasing concentrations of each PROTAC compound from 1 nM to 10 μM. Cell lysates were subjected to immunoblot analysis with the indicated antibodies, and SGK3 protein levels quantified in Image Studio Lite software. (D) HEK293 cells were treated for 48 h with increasing concentrations of each PROTAC compound from 1 nM to 10 μM. Cell lysates were subjected to immunoblot analysis with the indicated antibodies, and SGK3 and S6K1 protein levels were quantified in Image Studio Lite software. TEXT PRINTED IN THE PICTURE: (C) DAT1: % SGK3: 100 (48h Treatment (μM): 0); % SGK3: 94 (48h Treatment (μM): 0.001); % SGK3: 82 (48h Treatment (μM): 0.01); % SGK3: 70 (48h Treatment (μM): 0.1); % SGK3: 52 (48h Treatment (μM): 1); % SGK3: 31 (48h Treatment (μM): 10) | (C) DAT5: % SGK3: 100 (48h Treatment (μM): 0); % SGK3: 104 (48h Treatment (μM): 0.001); % SGK3: 82 (48h Treatment (μM): 0.01); % SGK3: 92 (48h Treatment (μM): 0.1); % SGK3: 73 (48h Treatment (μM): 1); % SGK3: 36 (48h Treatment (μM): 10) | (C) DAT6: % SGK3: 100 (48h Treatment (μM): 0); % SGK3: 105 (48h Treatment (μM): 0.001); % SGK3: 90 (48h Treatment (μM): 0.01); % SGK3: 71 (48h Treatment (μM): 0.1); % SGK3: 44 (48h Treatment (μM): 1); % SGK3: 20 (48h Treatment (μM): 10) | (C) DAT7: % SGK3: 100 (48h Treatment (μM): 0); % SGK3: 77 (48h Treatment (μM): 0.001); % SGK3: 80 (48h Treatment (μM): 0.01); % SGK3: 95 (48h Treatment (μM): 0.1); % SGK3: 37 (48h Treatment (μM): 1); % SGK3: 29 (48h Treatment (μM): 10) | (D) DAT8: % SGK3: 100 (48h Treatment (μM): 0); % SGK3: 97 (48h Treatment (μM): 0.001); % SGK3: 107 (48h Treatment (μM): 0.01); % SGK3: 34 (48h Treatment (μM): 0.1); % SGK3: 24 (48h Treatment (μM): 1); % SGK3: 19 (48h Treatment (μM): 10) | (D) DAT9: % SGK3: 100 (48h Treatment (μM): 0); % SGK3: 105 (48h Treatment (μM): 0.001); % SGK3: 71 (48h Treatment (μM): 0.01); % SGK3: 40 (48h Treatment (μM): 0.1); % SGK3: 11 (48h Treatment (μM): 1); % SGK3: 12 (48h Treatment (μM): 10) | (D) DAT10: % SGK3: 100 (48h Treatment (μM): 0); % SGK3: 100 (48h Treatment (μM): 0.001); % SGK3: 76 (48h Treatment (μM): 0.01); % SGK3: 54 (48h Treatment (μM): 0.1); % SGK3: 11 (48h Treatment (μM): 1); % SGK3: 9 (48h Treatment (μM): 10) | (D) DAT11: % SGK3: 100 (48h Treatment (μM): 0); % SGK3: 96 (48h Treatment (μM): 0.001); % SGK3: 97 (48h Treatment (μM): 0.01); % SGK3: 41 (48h Treatment (μM): 0.1); % SGK3: 32 (48h Treatment (μM): 1); % SGK3: 29 (48h Treatment (μM): 10) | (D) DAT12: % SGK3: 100 (48h Treatment (μM): 0); % SGK3: 106 (48h Treatment (μM): 0.001); % SGK3: 84 (48h Treatment (μM): 0.01); % SGK3: 79 (48h Treatment (μM): 0.1); % SGK3: 32 (48h Treatment (μM): 1); % SGK3: 29 (48h Treatment (μM): 10) DOUBTS OF THE COPYIST ABOUT THIS PICTURE: All % SGK3 values are quantification numbers printed under immunoblot lanes; each was assigned to a concentration by lane position / DAT9 and DAT10, % SGK3: the first numbers are printed run together ('100105', '100100') and were split as 100 | 105 and 100 | 100
Figure 3 Characterization of cellular activities of SGK3-PROTAC1 and cisSGK3-PROTAC1. […]

[1] = HEK293, washout after 24 h of treatment

## Cc1ccc(F)c(S(=O)(=O)Nc2ccc(-c3nc(OC[C@H]4CN(CCOCCOCCOCC(=O)N[C@H](C(=O)N5C[C@H](O)C[C@H]5C(=O)NCc5ccc(-c6scnc6C)cc5)C(C)(C)C)CCO4)c4cn[nH]c4n3)cc2)c1 [DAT1]
HEK293, 1 μM
  time of maximal reduction of SGK3 expression: ≤ 16 h
HEK293, 8 h time point, dose response
  concentration that maximally reduced SGK3 expression: 2 µM
HEK293, 48 h
  SGK3 degradation efficiency: + (“+” = >50% degradation at 10 μM)
  remaining activity at 0.001 µM: 94%
  remaining activity at 0.01 µM: 82%
HEK293, 48 h, 0.1 μM
  remaining activity at 0.1 µM: 70%
HEK293, 48 h, 1 μM
  reduction of SGK3 expression: 60%
  remaining activity at 1 µM: 52%
HEK293, 48 h, 10 μM
  reduction of SGK3 expression: 75%
  remaining activity at 10 µM: 31%

## Cc1ccc(F)c(S(=O)(=O)Nc2ccc(-c3nc(OC[C@H]4CN(CCOCCOCC(=O)N[C@H](C(=O)N5C[C@H](O)C[C@H]5C(=O)NCc5ccc(-c6scnc6C)cc5)C(C)(C)C)CCO4)c4cn[nH]c4n3)cc2)c1 [DAT5]
HEK293, 48 h
  SGK3 degradation efficiency: + (“+” = >50% degradation at 10 μM)
  remaining activity at 0.001 µM: 104%
  remaining activity at 0.01 µM: 82%
HEK293, 48 h, 0.1 μM
  remaining activity at 0.1 µM: 92%
HEK293, 48 h, 1 μM
  remaining activity at 1 µM: 73%
HEK293, 48 h, 10 μM
  remaining activity at 10 µM: 36%

## Cc1ccc(F)c(S(=O)(=O)Nc2ccc(-c3nc(OC[C@H]4CN(CCOCCOCCOCCOCC(=O)N[C@H](C(=O)N5C[C@H](O)C[C@H]5C(=O)NCc5ccc(-c6scnc6C)cc5)C(C)(C)C)CCO4)c4cn[nH]c4n3)cc2)c1 [DAT6]
HEK293, 48 h
  SGK3 degradation efficiency: ++ (“++” = >50% degradation at 1 μM)
  remaining activity at 0.001 µM: 105%
  remaining activity at 0.01 µM: 90%
HEK293, 48 h, 0.1 μM
  remaining activity at 0.1 µM: 71%
HEK293, 48 h, 1 μM
  remaining activity at 1 µM: 44%
HEK293, 48 h, 10 μM
  remaining activity at 10 µM: 20%

## Cc1ccc(F)c(S(=O)(=O)Nc2ccc(-c3nc(OC[C@H]4CN(CCOCCOCCOCCOCCOCC(=O)N[C@H](C(=O)N5C[C@H](O)C[C@H]5C(=O)NCc5ccc(-c6scnc6C)cc5)C(C)(C)C)CCO4)c4cn[nH]c4n3)cc2)c1 [DAT7]
HEK293, 48 h
  SGK3 degradation efficiency: ++ (“++” = >50% degradation at 1 μM)
  remaining activity at 0.001 µM: 77%
  remaining activity at 0.01 µM: 80%
HEK293, 48 h, 0.1 μM
  remaining activity at 0.1 µM: 95%
HEK293, 48 h, 1 μM
  remaining activity at 1 µM: 37%
HEK293, 48 h, 10 μM
  remaining activity at 10 µM: 29%

## Cc1ccc(F)c(S(=O)(=O)Nc2ccc(-c3nc(OC[C@H]4CN(CCCCCCOCCCCCCOCC(=O)N[C@H](C(=O)N5C[C@H](O)C[C@H]5C(=O)NCc5ccc(-c6scnc6C)cc5)C(C)(C)C)CCO4)c4cn[nH]c4n3)cc2)c1 [DAT10]
HEK293, 48 h
  SGK3 degradation efficiency: ++ (“++” = >50% degradation at 1 μM)
  remaining activity at 0.001 µM: 100%
  remaining activity at 0.01 µM: 76%
HEK293, 48 h, 0.1 μM
  remaining activity at 0.1 µM: 54%
HEK293, 48 h, 1 μM
  remaining activity at 1 µM: 11%
HEK293, 48 h, 10 μM
  remaining activity at 10 µM: 9%

## COc1ccc(Cl)c(S(=O)(=O)Nc2ccc(-c3nc(OC[C@H]4CN(CCCCCCOCCOCCOCCOCC(=O)N[C@H](C(=O)N5C[C@H](O)C[C@H]5C(=O)NCc5ccc(-c6scnc6C)cc5)C(C)(C)C)CCO4)c4c(C)n[nH]c4n3)cc2)c1 [DAT11]
HEK293, 48 h
  SGK3 degradation efficiency: +++ (“+++” = >50% degradation at 0.1 μM)
  remaining activity at 0.001 µM: 96%
  remaining activity at 0.01 µM: 97%
HEK293, 48 h, 0.1 μM
  remaining activity at 0.1 µM: 41%
HEK293, 48 h, 1 μM
  remaining activity at 1 µM: 32%
HEK293, 48 h, 10 μM
  remaining activity at 10 µM: 29%

## Cc1ccc(F)c(S(=O)(=O)Nc2ccc(-c3nc(OC[C@H]4CN(CCCCCCOCCOCCOCC(=O)N[C@H](C(=O)N5C[C@H](O)C[C@H]5C(=O)NCc5ccc(-c6scnc6C)cc5)C(C)(C)C)CCO4)c4cn[nH]c4n3)cc2)c1 [SGK3-PROTAC1]
HEK293, 0.3 μM, within 2 h
  degradation of endogenous SGK3: 50%
  degradation of SGK3: markedly reduced SGK3 expression
HEK293, 48 h
  SGK3 degradation efficiency: ++++ (“++++” = >60% degradation at 0.1 μM)
  remaining activity at 0.001 µM: 97%
  remaining activity at 0.01 µM: 107%
HEK293, 48 h, 0.1 μM
  reduction of SGK3 levels: 65%
  remaining activity at 0.1 µM: 34%
HEK293, 48 h, 1 μM
  remaining activity at 1 µM: 24%
HEK293, 48 h, 10 μM
  remaining activity at 10 µM: 19%
[1]
  time to increased SGK3 expression after washout: 1 h
  time to return of SGK3 protein to normal levels after washout: 10 h
HEK293, within 8 h, read-out: maximal degradation of SGK3
  Dmax: 80%
SGK3 degradation
  DC50: < 100 nM

## Cc1ccc(F)c(S(=O)(=O)Nc2ccc(-c3nc(OC[C@H]4CN(CCCCCCOCCOCCOCC(=O)N[C@H](C(=O)N5C[C@@H](O)C[C@H]5C(=O)NCc5ccc(-c6scnc6C)cc5)C(C)(C)C)CCO4)c4cn[nH]c4n3)cc2)c1 [cisSGK3-PROTAC1]
  degradation of SGK3: failed to induce degradation of SGK3
